Data taken from BindingDB's records for doi:10.1016/j.bmcl.2004.03.046 (Seoul National University, 2004).

Biological target: Tyrosinase (Agaricus bisporus)
Experiment: Inhibitory activity against mushroom tyrosinase

Row | SMILES | IC50 [nM]
1 | O=C(N[C@@H](Cc1ccccc1)C(=O)N[C@@H](Cc1c[nH]c2ccccc12)C(=O)N[C@@H](Cc1c[nH]c2ccccc12)C(=O)O)OCc1cc(=O)c(O)co1 [2-[(S)-2-[(S)-2-(5-Hydroxy-4-oxo-4H-pyran-2-ylmethoxycarbonylamino)-3-phenyl-propionylamino]-3-(1H-indol-3-yl)-propionylamino]-3-(1H-indol-3-yl)-propionic acid] | 6170
2 | O=C(N[C@@H](Cc1ccccc1)C(=O)N[C@@H](Cc1ccc(O)cc1)C(=O)N[C@@H](Cc1ccc(O)cc1)C(=O)O)OCc1cc(=O)c(O)co1 [(S)-2-[(S)-2-[(S)-2-(5-Hydroxy-4-oxo-4H-pyran-2-ylmethoxycarbonylamino)-1-oxo-3-phenyl-propylamino]-3-(4-hydroxy-phenyl)-propionylamino]-3-(4-hydroxy-phenyl)-propionic acid] | 390
3 | O=C(N[C@@H](Cc1ccccc1)C(=O)N[C@@H](Cc1ccccc1)C(=O)N[C@@H](Cc1ccc(O)cc1)C(=O)O)OCc1cc(=O)c(O)co1 [(S)-2-{(S)-2-[(S)-2-(5-Hydroxy-4-oxo-4H-pyran-2-ylmethoxycarbonylamino)-1-oxo-3-phenyl-propylamino]-3-phenyl-propionylamino}-3-(4-hydroxy-phenyl)-propionic acid] | 330

Now from value to molecule:

Row | IC50 [nM] | SMILES
4 | 2180 | CC[C@H](C)[C@H](NC(=O)[C@H](Cc1c[nH]c2ccccc12)NC(=O)[C@H](Cc1ccccc1)NC(=O)OCc1cc(=O)c(O)co1)C(=O)O [2-[(S)-2-[(S)-2-(5-Hydroxy-4-oxo-4H-pyran-2-ylmethoxycarbonylamino)-3-phenyl-propionylamino]-3-(1H-indol-3-yl)-propionylamino]-3-(S)-methyl-pentanoic acid]
5 | 4480 | O=C(N[C@@H](Cc1ccccc1)C(=O)N[C@@H](Cc1c[nH]c2ccccc12)C(=O)N[C@@H](Cc1ccccc1)C(=O)O)OCc1cc(=O)c(O)co1 [2-[(S)-2-[(S)-2-(5-Hydroxy-4-oxo-4H-pyran-2-ylmethoxycarbonylamino)-3-phenyl-propionylamino]-3-(1H-indol-3-yl)-propionylamino]-3-phenyl-propionic acid]
6 | 2130 | O=C(O)C[C@H](NC(=O)[C@H](Cc1c[nH]c2ccccc12)NC(=O)[C@H](Cc1ccccc1)NC(=O)OCc1cc(=O)c(O)co1)C(=O)O [2-[(S)-2-[(S)-2-(5-Hydroxy-4-oxo-4H-pyran-2-ylmethoxycarbonylamino)-3-phenyl-propionylamino]-3-(1H-indol-3-yl)-propionylamino]-succinic acid]
